Publication PMC5974751, “NKp44-Derived Peptide Binds Proliferating Cell Nuclear Antigen and Mediates Tumor Cell Death” (Frontiers in Immunology, 2018)
Peptide text beside a SMILES is read from it.

Assays:
[1] = system: 4T1 breast cancer tumor in BALB/C mice; experiment: In vivo 4T1 tumor growth; parameters: species or system mouse; settings: for tumor growth suppression vs vehicle, significance on days 19 and 23 / tumor growth suppression vs vehicle, significance on day 28: R11-NLS-pep8 5 mg/kg IV, 5-FU 30 mg/kg; for tumor growth suppression vs vehicle, significance on days 19 and 23: every 2 days, treatment stopped day 22, unpaired t-test, one-tail; for tumor growth suppression vs vehicle, significance on day 28: treatment stopped day 22
Method: Seven-week-old female BALB/C mice with an average body weight of 20 g were used in this experiment. 4T1 cells suspended at a density of 2 × 10^5 cells/50 μl, in serum-free DMEM containing 40% Geltrex, were injected into the left mammary fat pad, and allowed to develop tumors. After 5 days, mice were randomly divided into three groups, one group was treated with R11-NLS-pep8, at a dose of 5 mg/kg, intravenously (IV), other group with 5-FU, at a dose of 30 mg/kg, (IV) and mice treated with a 1.44% DMSO/150 mM NaCl solution, (IV) served as the vehicle control. Treatment was continued following every 2 days at least for 4 weeks. Each week, tumor size was evaluated by measuring their length (L) and width (W), using a Caliper device and tumor volume (V) was calculated according to the equation: V = LW^2/2. After 4 weeks of treatment, mice were euthanized, and tumors volume and weight were measured.
Figure 5 Effect of R11-NLS-pep8 on 4T1 and B16 in vivo tumor models. (A) 4T1 cells or (C) B16 cells were injected into the nipple pad or flank of young BALB/C females or C57BL/6 males, respectively (day 0). At day 5, mice were divided to subgroups according to mice weight. Treatment was started at day 5 (4T1) or day 6 (B16) and end at day 22. Treatment was administrated every 2 days three times per week; 5-FU was administered intraperitoneally (IP) while R11-NLS-pep8 was administrated intravenously (4T1) or IP (B16). Tumor volume (mm^3) was measured at days as indicated on graphs mean tumor volume (mm^3), (B) 4T1 and (D) B16 were normalized to vehicle/day to show the effect of treatment on tumor volume per day. Statistical analysis was performed on original tumor volume data. Unpaired t-test; one-tail, *p < 0.05.

[2] = system: B16 melanoma tumor in C57BL/6 mice; experiment: In vivo B16 tumor growth; parameters: species or system mouse; settings: R11-NLS-pep8 5 mg/kg IP, 5-FU 30 mg/kg IP, treatment stopped day 22
Method: Seven-week-old male C57BL/6 mice with an average body weight of 23 g were used in the other experiment. B16 cells suspended at a density of 0.5 × 10^6 cells/100 μl, in serum-free DMEM containing 40% Geltrex, were injected subcutaneously in the left dorsal flank, and allowed to develop tumors. After 6 days, mice were randomly divided into three groups, one group was treated with R11-NLS-pep8, at a dose of 5 mg/kg, intraperitoneally (IP), other group with 5-FU, at a dose of 30 mg/kg, (IP) and mice treated with a 1.44% DMSO/150 mM NaCl solution, (IP) served as the vehicle control. Treatment was done three times a week at least for 4 weeks. Each week, tumors size was evaluated by measuring their length (L) and width (W), using a Caliper device and tumor volume (V) was calculated according to the equation: V = LW^2/2. After 3 weeks of treatment, mice were euthanized, and tumors volume and weight were measured.
Figure 5 Effect of R11-NLS-pep8 on 4T1 and B16 in vivo tumor models. (A) 4T1 cells or (C) B16 cells were injected into the nipple pad or flank of young BALB/C females or C57BL/6 males, respectively (day 0). At day 5, mice were divided to subgroups according to mice weight. […] Tumor volume (mm^3) was measured at days as indicated on graphs mean tumor volume (mm^3), (B) 4T1 and (D) B16 were normalized to vehicle/day to show the effect of treatment on tumor volume per day. […]

B16 cells = experiment: Flow cytometry based cell death assay (PI), B16; parameters: species or system murine; settings: 0–8 µM, 24 h
Method: (§1) Peptides were diluted before the incubation with the target cells with free DMEM culture medium to 0–16 µM according to peptide molecular weight. For adding the peptides, 0.5 ml was removed from each well, and 0.5 ml of diluted peptides was added to a final volume of 1 ml, 5% FCS, duplicates. Peptides were incubated with target cells for 24 h, and then the medium was collected, adherent cells were removed with trypsin–EDTA (0.5 ml, 3 min, BI: 03-052-1B), 1 ml of complete medium was added to each well, and the medium was collected (final volume 2.5 ml, on ice). For the cell death assay, samples were then centrifuged (1,300 rpm, 4°C, 5 min), the medium was removed, fresh 1 ml 10% FCS was added, and then 1 µl of 1 mg/ml PI was added to each sample and incubated (15 min, on ice) with the target cells. Before analyzing the samples, samples were centrifuged (1,300 rpm, 4°C, 5 min), the medium was removed, and fresh 0.2 ml FCAS buffer (PBS 1×, 20% FCS, 0.5% NaN3) was added. Samples were then read and analyzed using BD FACSCanto™ II and FlowJo®. APIM peptide and camptothecin (CPT) were used as positive controls ([38], [54]–[56]). Specific cell death was calculated as following: Y = 100*((sample cell death − basal cell death)/(100 − basal cell death)). Basal cell death = % of PI positive cells following incubation in complete culture media.

[3] = system: PANC-1 pancreas ductal adenocarcinoma cells; experiment: PrestoBlue cell viability, PANC-1; type: cell-based, human; settings: PANC-1, PrestoBlue, 24 h; sigmoidal dose–response
Method: (§2) Target cells (2.5 × 10^4 cells/well of a 48-well plate, Corning) were seeded and incubated in 37°C, 5% CO2 for 24 h in 0.5 ml of fresh complete DMEM (10% FBS) culture medium. According to molecular weight peptides were diluted from 8 to 2 µM with 5% FBS containing DMEM culture medium just before the incubation with the target cells. Medium was removed from each well, and 250 µl of diluted peptides was added and incubated for another 24 h at 37°C, 5% CO2. PrestoBlue (A13261, Invitrogen™) solution was prepared by diluting the dye 10-fold with complete DMEM. Medium was discarded from each well, and 250 µl of PrestoBlue solution was added to each well, shake gently and incubated at 37°C for another 1 h. Emission at 560 nm was measured in Premium Quad4 Monochromators plate reader (Tecan). Normalization was done relative to the appropriate control (DMEM or DMSO) to calculate the percentage of viable cells in each group. Selenite (25 µM) was used as a positive control ([52], [53]).

B16 melanoma cells = experiment: PrestoBlue cell viability, B16; type: cell-based, murine; settings: 24 h, sigmoidal dose–response
Method: as §2

[4] = system: pep8–PCNA interaction (recombinant PCNA); experiment: ELISA-based inhibition of biotin-pep8 binding to PCNA; parameters: species or system human; settings: inhibitor 25 µg/ml 1 h, then biotin-pep8 5 µg/ml 1 h, room temperature, O.D. 650 nm
Method: To determine the ability of APIM-based peptide to suppress NKp44-pep8 interaction with PCNA, ELISA plates were coated with recombinant PCNA followed by PBS–skim milk added as described earlier. Plates were then incubated with 25 µg/ml of R11-NLS-pep8 (positive control), R11-NLS-pep8short (negative control), and APIM for 1 h at room temperature followed by addition of biotin-pep8 (5 µg/ml) without washing for 1 h at room temperature. Biotin-pep8 binding to PCNA was detected using streptavidin conjugated HRP (1 h at 1:500 dilution 100 μl/well). Following washing, TMB (100 μl/well DAKO, S1599) was added. O.D. was read at 650 nm (Thermo Electron Corporation Multiskan Spectrum).

[5] = system: MDA-MB-231 breast adenocarcinoma cells; experiment: PrestoBlue cell viability, MDA-MB-231; type: cell-based, human; settings: MDA-MB-231, PrestoBlue, 24 h; sigmoidal dose–response
Method: as §2

4T1 cells = experiment: Flow cytometry based cell death assay (PI), 4T1; parameters: species or system murine; settings: 4T1, PI flow cytometry, 0–8 µM, 24 h
Method: as §1

MDA-MB-231 cells = experiment: Flow cytometry based cell death assay (PI), MDA-MB-231; parameters: species or system human; settings: MDA-MB-231, PI flow cytometry, 0–8 µM, 24 h
Method: as §1

[6] = system: HepG2 hepatocellular carcinoma cells; experiment: PrestoBlue cell viability, HepG2; type: cell-based, human; settings: 24 h, sigmoidal dose–response
Method: as §2

[7] = Initial toxicity studies in mice; type: in vivo, mouse; settings: 5 mg/kg every 2 days for 3 weeks; data not shown
Method: Initial toxicity studies have been performed with the 5 mg/kg dose injected into mice every 2 days for 3 weeks, and analysis of mouse weight and well-being was meticulously observed during this time. Also, livers, spleens, and lungs were harvested and weight.

| SMILES | tumor growth suppression vs vehicle, significance on days 19 and 23 [1] | tumor growth suppression vs vehicle, significance on day 28 [1] | tumor growth suppression, day 23 [2] | ED50, cell death (B16 cells) [µM] | ED50, cell viability [3] [µM] | ED50, cell viability (B16 melanoma cells) [µM] | growth suppression relative to 5-FU ([1]; R11-NLS-pep8 5 mg/kg IV vs 5-FU IP 30 mg/kg) | inhibition of pep8 binding to PCNA [4] [%] | ED50, cell viability [5] [µM] | ED50, cell death (4T1 cells) [µM] | ED50, cell death (MDA-MB-231 cells) [µM] | ED50, cell viability [6] [µM] | mice weights and well-being [7] | organ weights (livers, spleens, lungs) at end of experiment [7] |
| --- | --- | --- | --- | --- | --- | --- | --- | --- | --- | --- | --- | --- | --- | --- |
| O=c1[nH]cc(F)c(=O)[nH]1 [5-FU, reference compound] | clear yet non-significant on days 19 and 23 | significant on day 28 | significantly suppressed B16 growth |  |  |  |  |  |  |  |  |  |  |  |
| CC[C@H](C)[C@H](NC(=O)[C@H](CCCNC(=N)N)NC(=O)[C@H](CCCNC(=N)N)NC(=O)[C@H](CCCNC(=N)N)NC(=O)[C@H](CCCNC(=N)N)NC(=O)[C@H](CCCNC(=N)N)NC(=O)[C@H](CCCNC(=N)N)NC(=O)[C@H](CCCNC(=N)N)NC(=O)[C@H](CCCNC(=N)N)NC(=O)[C@H](CCCNC(=N)N)NC(=O)[C@H](CCCNC(=N)N)NC(=O)[C@H](CCCNC(=N)N)NC(C)=O)C(=O)N[C@@H](CCCCN)C(=O)N[C@@H](CCCCN)C(=O)N[C@@H](CCCCN)C(=O)N[C@@H](CCCNC(=N)N)C(=O)N[C@@H](CCCCN)C(=O)N[C@@H](Cc1c[nH]c2ccccc12)C(=O)N[C@@H](CCC(=O)O)C(=O)N[C@@H](C)C(=O)N[C@@H](CO)C(=O)N[C@@H](C)C(=O)N[C@@H](CC(C)C)C(=O)N[C@H](C(=O)N[C@@H](CS)C(=O)N[C@H](C(=O)N[C@@H](CCCNC(=N)N)C(=O)N[C@@H](CC(C)C)C(=O)N[C@H](C(=O)N[C@H](C(=O)N[C@@H](CO)C(=O)N[C@@H](CO)C(=O)N[C@@H](CCCCN)C(=O)N1CCC[C@H]1C(=O)N[C@@H](CCCNC(=N)N)C(=O)N[C@H](C(=O)N[C@H](C(=O)N[C@H](C)C(=O)O)C(C)C)[C@@H](C)O)[C@@H](C)O)C(C)C)[C@@H](C)CC)C(C)C [R11-NLS-pep8] (HELM PEPTIDE1{[ac].R.R.R.R.R.R.R.R.R.R.R.I.K.K.K.R.K.W.E.A.S.A.L.V.C.I.R.L.V.T.S.S.K.P.R.T.V.[dA]}$$$$V2.0; C-terminus assumed) | statistically significant on days 19 and 23 | statistically non-significant difference | significantly suppressed B16 growth | 3.94 | 7.8 | 7.1 | comparable to the effect of 5-FU | 35 | 5.6 | 3.78 | 4.07 | 5.9 | No significant changes were observed | No significant changes were observed |
